According to paper PMC10827958, “Identification of a novel thermostable transaminase and its application in L-phosphinothricin biosynthesis” (Applied Microbiology and Biotechnology, 2024):

System: T1, PtTA
T1 construct: PLP enzyme
Assay: initial rates, chiral HPLC of L-PPT, Michaelis-Menten fit
Type: biochemical, Zestomonas thermotolerans
Conditions: PPO 1-100 mM; co-substrate L-amino acid 100 mM (L-Glu presumably); 0.1 mM PLP; 50 mM phosphate pH 8.0; 55 °C

**Q.** Which Km does the source give for `CP(=O)(O)CCC(=O)C(=O)O` [PPO, 4-(hydroxy(methyl)phosphoryl)-2-oxobutanoic acid] here?
**A.** The Km was 35.9 mM.
